Tests used:
[1] = system: patients with renal anemia; experiment: Clinical test: side effects; format: in vivo, human
Description: 1.3 g of an amino acid preparation (trade name: Argi U granules, a product of Ajinomoto Pharma Co. Ltd.) (1.0 g of […] in conservative stage accompanying renal anemia, whose age, hemocytometric results and results of general biochemical tests are shown in Table 1). The administration period was at the longest 18 weeks. The amount of each of hemoglobin, BUN (blood urea nitrogen), Cre (creatinine), Fe and erythropoietin in blood was determined by methods described below.

[2] = system: patients with renal anemia; experiment: Clinical test: hemoglobin in patients with renal anemia, oral Argi U granules; format: in vivo, human
Description: The administration period was at the longest 18 weeks. The amount of each of hemoglobin, BUN (blood urea nitrogen), Cre (creatinine), Fe and erythropoietin in blood was determined by methods described below.
Hemoglobin was determined with an automatic blood cell analysis device.
The hemoglobin concentration of each case determined before and after the administration of the amino acid preparation is shown in Table 2.
For typical three patients, a change in hemoglobin concentration was given as ΔHb value (amount of change of hemoglobin) calculated by deducting the hemoglobin concentration before the administration of the amino acid preparation from the hemoglobin concentration after the administration thereof in FIG. 1.

[3] = system: patients with renal anemia; experiment: Clinical test: erythropoietin in blood, ELISA; format: in vivo, human
Excerpt: (§1) 1.3 g of an amino acid preparation (trade name: Argi U granules, a product of Ajinomoto Pharma Co. Ltd.) (1.0 g of arginine) was orally administered in two portions everyday to each of 8 patients having an illness diagnosed as renal anemia (cases of chronic renal failure in conservative stage accompanying renal anemia, whose age, hemocytometric results and results of general biochemical tests are shown in Table 1). The administration period was at the longest 18 weeks. The amount of each of hemoglobin, BUN (blood urea nitrogen), Cre (creatinine), Fe and erythropoietin in blood was determined by methods described below.
Erythropoietin was determined by ELISA method.

[4] = system: patients with renal anemia; experiment: Clinical test: Cre (creatinine), enzymatic method; format: in vivo, human; conditions: effective cases 1, 2, 4 and 6
Excerpt: as §1
Cre was determined by an enzymatic method (sarcosine oxidase[…]POD method).

[5] = system: patients with renal anemia; conditions: conventional treatment with rHuEPO preparation; cited from earlier work

Compound | side effect ([1]; 9 administration cases) | side effect ([1]; further administration of 2.6 g/day for 1 month) | anemia after discontinuance of administration ([2]; 2 cases in the 7 effective cases) | Hb after further administration ([2]; 2.6 g/day for 1 month, increased from 10.7 g/dl) | judgement of results ([2]; cases 1 to 7) | judgement of results ([2]; cases 8 and 9) | Hb after discontinuance of administration ([2]; other 3 effective cases) | EPO concentration in blood relative to rHuEPO preparation treatment ([3]; L-arginine versus conventional rHuEPO treatment) | EPO concentration in blood, at the highest ([3]; after the administration of L-arginine) | Epo productivity (Epo concentration in blood) ([3]; all the effective cases) | Epo productivity (Epo concentration in blood) ([3]; the two ineffective cases) | renal function [4] | EPO concentration in blood [5]
N=C(N)NCCC[C@H](N)C(=O)O [L-arginine] | No evident side effect | no obvious side effect | anemia became worse | 11.5 g/dL | effective | ineffective | Hb was not lowered | less than ⅙ | about 20 mU/mL | increased | lowered | recovery of the renal function was recognized | –
rHuEPO preparation: recombinant erythropoietin preparation, conventional treatment of renal anemia | – | – | – | – | – | – | – | – | – | – | – | – | about 130 mU/mL

— patent US20050282751A1, “Therapeutic agent for renal anemia” (Ajinomoto Co., Inc., priority 2004, published 2005)
